By IC50 is commonly meant the concentration that gives 50% inhibition. High values mean a need for much substance, low ones inhibition by little substance.

Where a name gives a salt, the structure may show the parent alone.

In the assay the target is HIF prolyl hydroxylase. Kind of assay: Inhibition of the activity of HIF prolyl hydroxylase (VBC complex binding to hydroxylated peptide substrate). Particulars: cell lysate containing prolyl hydroxylase. It counts as biochemical. As to the method:
Hydroxylated HIF bonds specifically to the von Hippel-Lindau protein-elongin B-elongin C complex (VBC complex). This interaction occurs only if HIF is hydroxylated on a conserved prolyl radical. It is the basis for the biochemical determination of HIF prolyl hydroxylase activity. The test is carried out as described [Oehme F., Jonghaus W., Narouz-Ott L., Huetter J., Flamme I., Anal. Biochem. 330 (1), 74-80 (2004)]:
A clear 96-well microtiter plate coated with NeutrAvidin HBC (Pierce) is incubated with blocker casein for 30 minutes. The plate is then washed three times with 200 μl each time of wash buffer (50 mM Tris, pH 7.5, 100 mM NaCl, 10% (v/v) blocker casein, 0.05% (v/v) Tween 20) per well. The peptide biotin-DLDLEMLAPYIPMDDDFQL (Eurogentec, 4102 Seraing, Belgium) is added in a concentration of 400 nM in 100 μl wash buffer. This peptide serves as a substrate for the prolyl hydroxylation and is bonded to the microtiter plate. After incubation for 60 minutes, the plate is washed three times with wash buffer, incubated with 1 mM biotin in blocker casein for 30 minutes and then washed again three times with wash buffer.
To carry out the prolyl hydroxylase reaction, the peptide substrate bonded to the plate is incubated with a cell lysate containing prolyl hydroxylase for 1 to 60 minutes. The reaction takes place in 100 μl reaction buffer (20 mM Tris, pH 7.5, 5 mM KCl, 1.5 mM MgCl2, 1 μM-1 mM 2-oxoglutarate, 10 μM FeSO4, 2 mM ascorbate) at room temperature. The reaction mixture moreover contains various concentrations of the prolyl hydroxylase inhibitor to be tested. The test substance is preferably, but not exclusively, employed at concentrations of between 1 nM and 100 μM. The reaction is stopped by washing the plate three times with wash buffer.
For quantitative determination of the prolyl hydroxylation, a fusion protein which contains both thioredoxin from E. coli and the VBC complex in 80 μl bonding buffer (50 mM Tris, pH 7.5, 120 mM NaCl) is added. After 15 minutes, 10 μl of a solution of polyclonal anti-thioredoxin antibodies from rabbit in bonding buffer are added. After a further 30 minutes, 10 μl of a solution of anti-rabbit immunoglobulin coupled to horseradish peroxidase in bonding buffer are added. After incubation at room temperature for 30 minutes, the plate is washed three times with wash buffer in order to remove non-bonded VBC complex and antibodies. To determine the amount of bonded VBC complex, the plate is incubated with TMB for 15 minutes. The color reaction is ended by addition of 100 μl 1 M sulfuric acid. The amount of bonded VBC complex is determined by measurement of the optical density at 450 nm. It is proportional to the amount of hydroxylated proline in the peptide substrate.
Alternatively, a VBC complex coupled to europium (Perkin Elmer) can be used for detection of the prolyl hydroxylation. In this case, the amount of bonded VBC complex is determined by the fluorescence with respect to time. The use of VBC complex labeled with [^35S]-methionine is moreover possible. For this, the radioactively labeled VBC complex can be prepared by in vitro transcription-translation in reticulocyte lysate.
Representative IC50 values for the embodiment examples are reproduced in the following Table 1: […]
Take `Cc1cc(C)n(-c2cc(-n3[nH]cc(-c4cccnc4)c3=O)ncn2)n1` [Example 3]: the IC50 came out at 700 nM.
With `O=c1c(-c2cccnc2)c[nH]n1-c1nc2ccccc2s1` [Example 6] the figure was 2800 nM.
In turn, `O=c1c(-c2cccnc2)c[nH]n1-c1nnc(-c2ccc(Cl)cc2)s1` [Example 7] had an IC50 of 880 nM.
With `O=c1c(-c2ccc(Cl)nc2)c[nH]n1-c1cc(N2CCOCC2)ncn1` [Example 16] the figure was 480 nM; with `O=c1c(-c2cccnc2)c[nH]n1-c1cc(N2CCOCC2)ncn1` [Example 18, 2-(6-Morpholin-4-yl-pyrimidin-4-yl)-4-pyridin-3-yl-1,2-dihydro-3H-pyrazol-3-one hydrochloride], 180 nM.
In turn, `O=c1c(-c2cccnc2)c[nH]n1-c1ccc(-c2ccccc2)nn1` [Example 22, 2-(6-Phenylpyridazin-3-yl)-4-pyridin-3-yl-1,2-dihydro-3H-pyrazol-3-one hydrochloride] gave a 50% inhibitory concentration (IC50) of 2700 nM.
Take `CN(C)CCOc1cc(-n2[nH]cc(-c3cccnc3)c2=O)ncn1` [Example 26, 2-{6-[2-(Dimethylamino)ethoxy]pyrimidin-4-yl}-4-pyridin-3-yl-1,2-dihydro-3H-pyrazol-3-one hydrochloride]: the IC50 is 4000 nM.
With `COCCN1CCN(c2cc(-n3[nH]cc(-c4cccnc4)c3=O)ncn2)CC1` [Example 28, 2-{6-[4-(2-Methoxyethyl)piperazin-1-yl]pyrimidin-4-yl}-4-pyridin-3-yl-1,2-dihydro-3H-pyrazol-3-one dihydrochloride] the figure was 890 nM.
The molecule `N#Cc1cncc(-c2c[nH]n(-c3cc(N4CCCCC4)ncn3)c2=O)c1` [Example 44, 5-[3-oxo-2-(6-piperidin-1-ylpyrimidin-4-yl)-2,3-dihydro-1H-pyrazol-4-yl]pyridine-3-carbonitrile hydrochloride] returned an IC50 of 1120 nM.
Molecule `O=c1c(-c2cccnc2)c[nH]n1-c1cnccn1` [Example 46, 2-Pyrazin-2-yl-4-pyridin-3-yl-1,2-dihydro-3H-pyrazol-3-one hydrochloride] displayed an IC50 of 930 nM.
With `CCN(CC)CCCCCCNc1cc(-n2[nH]cc(-c3cccnc3)c2=O)ncn1` [Example 55, 2-(6-{[6-(Diethylamino)hexyl]amino}pyrimidin-4-yl)-4-pyridin-3-yl-1,2-dihydro-3H-pyrazol-3-one], the IC50 was found to be 1700 nM.

For the origin of these results see patent US8524699B2, “Substituted dihydropyrazolones and use thereof as HIF-prolyl-4-hydroxylase inhibitors” (Bayer Intellectual Property GmbH, priority 2006, dated 2013).
